Test results taken from article PMC12010006, “Subnanomolar MAS-related G protein-coupled receptor-X2/B2 antagonists with efficacy in human mast cells and disease models” (Signal Transduction and Targeted Therapy, 2025).
Entries after “also recorded” stand apart in the source; their conditions may differ.

Legend:
LAD2 cells = test: MTT assay, LAD2 cells; type: cell-based, human; details: 24 h; concentrations up to 6-fold higher than IC50 (3, 10, 30 nM)
Protocol: Fig. 6 PSB-172656 inhibits MRGPRX2-mediated mast cell degranulation. a LAD2 cells were incubated with buffer (control) or various concentrations of MRGPRX2 antagonist PSB-172656, subsequently exposed to substance P (SP, 0.3 µM), and β-hexosaminidase release was measured. […] Data are expressed as means ± SEM of 3 biological replicates. Statistical significance was determined by one-way ANOVA (Tukey’s multiple comparisons), compared to the effect of SP in the absence of PSB-172656 (P-value*** < 0.001). b Potential cytotoxicity of PSB-172656 was determined in 3-[4,5-dimethylthiazol-2-yl]-2,5-diphenyl tetrazolium bromide (MTT) assays performed on LAD2 cells. Cells were treated with different concentrations of PSB-172656 for 24 h at 37 °C, and the optic density value was determined at 570 nm (the viability of untreated cells corresponds to 100% cell viability). […] Mean fluorescence intensity (MFI) levels of e CD107a and f CD63 are depicted. […] Degranulation is characterized by the release of β-hexosaminidase, expressed as a percentage of the total content. h Human skin MCs were incubated with different concentrations of PSB-172656 for 30 min followed by stimulation with CST-14 (1 µM). Statistical significance was calculated by one-way ANOVA (Tukey’s multiple comparisons), compared to agonist without PSB-172656 (P-value* < 0.05, […], and P-value**** < 0.001) […]

C3a-induced response = test: Surface expression of CD107a and CD63 (flow cytometry), LAD2 cells activated with C3a; type: cell-based, human; details: 30 nM; C3a 3 nM
Protocol: The granule-associated proteins CD107a and CD63 externalize in the process of degranulation. Their quantification by flow cytometry is a reliable marker of mast cell activation, which is often used for the diagnosis of allergies and anaphylaxis in mast cell activation tests.[49],[50] Thus, the expression of CD107a and CD63 on the cell surface was determined to confirm the effects of PSB-172656 on SP-induced MRGPRX2-mediated degranulation. […] In addition to MRPGRX2, LAD2 cells also express a GPCR that is specifically activated by the complement component C3a.[51] Both receptors can activate Gαi/o proteins to promote MC activation.[48],[52]
MC degranulation was also measured by determining the cell surface expression of CD107a (Lysosomal-Associated Membrane Protein-1, LAMP-1) and CD63 (LAMP-3) after agonist stimulation.[48] LAD2 cells were preincubated with PSB-172656 or vehicle control for 5 min at 37 °C, then activated with SP (0.3 μM) and or C3a (3 nM) for 5 min at 37 °C. After 5 min of incubation, cells were fixed with 500 µL of 4% fixation buffer (Biolegend, Catalog 420801) for 15 min at room temperature. […] Cell surface expression of CD107a and CD63 was measured from the zombie-yellow negative population by a BD LSR II flow cytometer (San Jose, CA, USA) and analyzed by FlowJo software version 10.7.2 (Tree Star Inc., Ashland, OR, USA).[48],[50]

[1] = test system: C48/80-induced systemic anaphylaxis; test: Systemic anaphylactic reaction, plasma CCL2; type: in vivo, mouse; details: 50 mg/kg b.w., i.p.; C48/80 2 mg/kg i.p.; 4 h; listed as PSB-172656
Protocol: PSB-172656 was further investigated in a mouse model of skin inflammation,[54] determining its effects on C48/80-induced hind paw edema. […] These findings indicate a strong anti-inflammatory effect of the MRGPRX2/B2 antagonist in this mouse model.
30 min after intraperitoneal administration of PSB-172656 at a dose of 50 mg/kg b.w. or vehicle (2% DMSO), an anaphylactic reaction was induced by the intraperitoneal injection of C48/80 at a dose of 2 mg/kg b.w. (in 0.9% NaCl). The non-lethal dose of this compound was assumed based on the literature.[70],[71] The mice were then left in their cages for 4 h. Then, heparin (2500 U/mouse) and sodium thiopental at a dose of 70 mg/kg b.w. were administered intraperitoneally, and blood was collected after decapitation. The plasma concentration of CCL-2 and IL-8 was determined using an ELISA kit (catalog number: E1707Mo, E1481Mo, BT LAB, China).

[2] = Metabolic stability in human liver microsomes; type: in vitro ADME; details: human liver microsomes 0.25 mg/ml, compound 1 µM
[3] = test system: muscarinic acetylcholine receptors (mAChRs); test: Ca2+ assay versus carbachol in LN229-MRGPRX2 cell line; type: cell-based, human; details: 10 µM, carbachol 100 µM

Row | Structure (SMILES) | toxicity in LAD2 cells (MTT) (LAD2 cells) | effect on C3a-induced expression of CD107a and CD63 (C3a-induced response) | effect on plasma CCL2 levels [1] | half-life at 1 µM ([2]; both sexes, human, liver microsomes, read-out: T1/2 (half-life)) [h] | microsomal CLint at 1 µM ([2]; both sexes, read-out: Clint (intrinsic clearance)) [µL/min/mg] | T1/2 (half-life) [2] [h] | T1/2 (half-life) ([2]; listed as PSB-172656) [h] | inhibition of signal induced by carbachol [3]
1 | CCc1c(C(C)C)[nH]c2nc3cc(F)c(F)cc3n2c1=O [Compound 24, 3-ethyl-7,8-difluoro-2-isopropylbenzo[4,5]imidazo [1,2-a] pyrimidin-4(1H)-one] | did not exhibit toxicity | did not affect | significantly decreased levels of CCL2; also recorded: prevented the dramatic increase in CCL2 levels | 1.53 | 15 | 1.54 | > 1.5 | 
2 | CCCc1c(C)[nH]c2nc3ccccc3n2c1=O [Compound 1, 2-methyl-3-propylbenzo[4,5]imidazo[1,2-a]pyrimidin-4(1H)-one] |  |  |  |  |  |  |  | did not inhibit
